Experimental data from article PMC7582714, “Cooperative Binding of the Cationic Porphyrin Tris-T4 Enhances Catalytic Activity of 20S Proteasome Unveiling a Complex Distribution of Functional States” (International Journal of Molecular Sciences, 2020).

Key:
human 20S proteasome = system: T1, human 20S proteasome; assay: 20S proteasome chymotryptic-like activity assay (Suc-LLVY-AMC), steady-state kinetics vs Tris-T4 concentration; assay type: biochemical
T1 construct: purchased Boston Biochem
Text: In order to better characterize the effect of Tris-T4 on the functional properties of the 20S proteasome, we have carried out an investigation on the steady-state chymotryptic-like activity of h20S as a function of Tris-T4 concentration, employing different substrate concentrations.
(§1) In addition, for the sake of clarity, in Scheme 1 some of these parameters are reported as interaction ratios, namely α = KAU/KAL, β = KBU/KBL, γ = KBU/KAU, and δ = KBL/KAL. Finally, σA and σB refer to the eventual effect of Tris-T4 binding on the catalytic rate-limiting step kcat of either state A and/or state B (see Scheme 1). […] (1) kobscat=kcatA⋅(1+KAL⋅[Tris_T4])^n+LL⋅kcatB⋅(1+KBL⋅[Tris_T4])^n/(1+KAL⋅[Tris_T4])^n+LL⋅(1+KBL⋅[Tris_T4])^n (2) Kobsm=K0m⋅(1+KAU⋅[Tris_T4])^n+LU⋅(1+KBI⋅[Tris_T4])^m⋅(1+KBU⋅[Tris_T4])^n/(1+KAL⋅[Tris_T4])^n+LL⋅(1+KBL⋅[Tris_T4])^n (3) kobscat/Kobsm=kcatA/KmA⋅(1+KAU⋅[Tris_T4])^n+LU⋅kcatB/KmB⋅(1+KBI⋅[Tris_T4])^m⋅(1+KBU⋅[Tris_T4])^n/(1+KAU⋅[Tris_T4])^n+LU⋅(1+KBI⋅[Tris_T4])^m⋅(1+KBU⋅[Tris_T4])^n
(§2) 20S proteasome activity assays were performed in vitro in the assay buffer (i.e., 50 mM TrisHCl, pH 8.0) by mixing 20S proteasome (2 nM) with increasing concentrations (0.1–10 µM) of Tris-T4 incubating for 30 min at 37 °C. Then, varying concentrations (between 5 µM and 100 µM) of fluorogenic peptide were added in a 384 multiwell black plate. A minimum of three replicates were performed for each data point. […] Data relative to CP activities at different substrate concentrations have been analyzed by a double reciprocal Lineweaver–Burk plot, according to the following equation:(4) [E0]/v=Km/±kcatx 1/[S]+1/kcat where (E0) is the enzyme concentration, ν is the observed velocity (expressed as moles of substrate cleaved per time interval unit), (S) is the substrate concentration, Km is the Michaelis–Menten equilibrium constant, referring to the affinity for substrate, and kcat is the velocity of the rate-limiting step. All curve fitting and statistical analysis were carried out using the non-linear fitting tool (NLFit) and MatLab (The Math works Inc., Natick, MA, USA). The parametric data fitting was based on nonlinear regression and the method of least squares. Model discrimination and choice was based on the goodness of fit. The goodness of fit was evaluated by visual examination of the fitted curves, 95% confidence bounds for the fitted coefficients and statistical analysis for determining the square of the multiple correlation coefficient (R^2).The Gibbs free energy difference (ΔG^0 = −RT lnK) was calculated using the values of the equilibrium constants reported in Table 1 and corresponds to −ΔG^0 of the considered conformational transition equilibrium as depicted in Scheme 1.

wt y20S proteasome = system: T2, wt y20S proteasome; assay: as above; assay type: biochemical, yeast
T2 construct: Yeast CP 20S wild-type and the mutant form, α3ΔN, were purified as previously reported; made in house; host or cells: yeast
Text: (§3) Then, we have extended the investigation on the functional modulation of the chymotryptic-like activity by Tris-T4 porphyrin also to wt y20S proteasome and to its mutant α3ΔN, which is characterized by a significant enhancement of the enzymatic activity, ascribed to disruption of the gate closing mechanism.
as §1, §2

[1] = system: T3, yeast α3ΔN mutant of 20S proteasome; assay: as above; assay type: biochemical
T3 construct: Yeast CP 20S wild-type and the mutant form, α3ΔN, were purified as previously reported; made in house; host or cells: yeast
Text: as §3, §1, §2

h20S proteasome = system: T4, h20S proteasome; assay: STD and WaterLOGSY NMR interaction study; assay type: binding, human; settings: Tris-T4 175 μM, 20S 860 nM; 50 mM Hepes, 100 mM NaCl, 1mM DTT
T4 construct: purchased Boston Biochem
Experimental: For NMR interaction studies, Saturation Transfer Difference (STD) and WaterLogsy (WL) experiments were employed to derive the ligand binding epitope.
As a starting point, the Tris-T4 structure has been analyzed by ^1H NMR spectroscopy in the buffer (50 mM Hepes, 100 mM NaCl and 1mM DTT). The ^1H chemical shift assignments of Tris-T4 are reported in Supplementary Figure S1. Both STD- and WL-NMR spectra of Tris-T4 were acquired in a 200-fold excess over the h20S proteasome.
Then, to identify the ligand moiety more closely interacting with the protein, we evaluated and compared the saturation effects of the individual Tris-T4 proton resonances (ISTD = I0 − Isat). The signal showing the largest ISTD/I0 value, the para phenyl proton, was normalized to 100% (Figure 7). The relative degree of saturation of the individual protons, normalized to that of the para phenyl proton, was then used to compare the STD effect.

[2] = system: purified rabbit 20S proteasome; set-up: method as in PMID 22642538; settings: 100 µM fluorogenic substrate; apparent inhibition; read-out: IC50, chymotryptic-like activity; cited from earlier work
h20S = settings: cited from earlier work
[3] = Michaelis-Menten constant in state A
[4] = Michaelis-Menten constant in state B (stabilized by Tris-T4)
[5] = state A, substrate-bound ES complex
[6] = state B, substrate-bound ES complex

T3 sequence (P23639 whole entry, stated change not applied): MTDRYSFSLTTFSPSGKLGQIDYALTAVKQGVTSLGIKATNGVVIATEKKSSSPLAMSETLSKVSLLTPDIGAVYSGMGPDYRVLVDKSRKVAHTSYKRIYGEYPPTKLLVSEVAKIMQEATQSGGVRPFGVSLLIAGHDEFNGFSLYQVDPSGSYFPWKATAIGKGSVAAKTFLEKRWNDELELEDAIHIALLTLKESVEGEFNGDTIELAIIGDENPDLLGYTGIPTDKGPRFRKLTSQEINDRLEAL
T3 sequence (P32379 whole entry, stated change not applied, further chain): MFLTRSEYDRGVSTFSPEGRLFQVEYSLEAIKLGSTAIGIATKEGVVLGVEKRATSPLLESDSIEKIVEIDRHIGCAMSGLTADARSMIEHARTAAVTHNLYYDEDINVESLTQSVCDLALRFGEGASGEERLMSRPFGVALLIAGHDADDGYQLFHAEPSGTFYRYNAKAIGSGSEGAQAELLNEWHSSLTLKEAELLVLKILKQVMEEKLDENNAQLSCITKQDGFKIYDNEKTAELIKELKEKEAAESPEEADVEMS
T3 sequence (P40303 whole entry, stated change not applied, further chain): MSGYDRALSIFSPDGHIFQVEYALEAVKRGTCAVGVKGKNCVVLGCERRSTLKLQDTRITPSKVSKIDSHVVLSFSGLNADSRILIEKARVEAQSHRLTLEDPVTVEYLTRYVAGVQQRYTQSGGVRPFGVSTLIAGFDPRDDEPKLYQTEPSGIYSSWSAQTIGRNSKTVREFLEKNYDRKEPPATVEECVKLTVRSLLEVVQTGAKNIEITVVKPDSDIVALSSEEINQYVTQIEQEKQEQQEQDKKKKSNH
T3 sequence (P40302 whole entry, stated change not applied, further chain): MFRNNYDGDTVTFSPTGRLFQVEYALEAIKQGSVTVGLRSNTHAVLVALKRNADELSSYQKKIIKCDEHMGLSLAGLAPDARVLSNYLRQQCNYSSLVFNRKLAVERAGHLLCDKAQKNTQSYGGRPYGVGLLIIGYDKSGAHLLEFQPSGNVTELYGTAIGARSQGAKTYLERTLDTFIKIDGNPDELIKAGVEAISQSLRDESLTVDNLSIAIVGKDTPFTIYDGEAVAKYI
T3 sequence (P21243 whole entry, stated change not applied, further chain): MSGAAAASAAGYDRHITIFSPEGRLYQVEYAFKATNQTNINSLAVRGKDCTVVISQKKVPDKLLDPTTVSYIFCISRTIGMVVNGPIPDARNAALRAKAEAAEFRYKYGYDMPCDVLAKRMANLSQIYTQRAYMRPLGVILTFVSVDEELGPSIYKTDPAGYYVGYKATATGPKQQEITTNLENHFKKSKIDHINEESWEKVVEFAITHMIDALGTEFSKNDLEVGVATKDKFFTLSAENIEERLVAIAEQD

## C[n+]1ccc(-c2c3nc(c(-c4cc[n+](C)cc4)c4ccc([nH]4)c(-c4cc[n+](C)cc4)c4nc(c(-c5ccccc5)c5ccc2[nH]5)C=C4)C=C3)cc1 [Tris-T4, 5-(phenyl)-10,15,20-(tri N-methyl-4-pyridyl) porphyrin]
Human 20S proteasome; (Substrate) < 25 µM, Tris-T4 0-10 μM
  effect on chymotryptic-like activity: activator
Human 20S proteasome; Eq 1-3
  m, number of competitive inhibitory sites: 0
Human 20S proteasome; [3]
  KmA: 1.95(± 0.37) × 10^−3 M
Human 20S proteasome; [4]
  KmB: 1.5(± 0.3) × 10^−4 M
Human 20S proteasome; absence of the substrate, floating parameter of the two-state model
  LU, equilibrium constant between A and B: 3.0(± 0.5) × 10^−6 (3)
Human 20S proteasome; chymotryptic-like activity
  Tris-T4 concentration at which activation is essentially completed: 3 µM
Human 20S proteasome; minimum value, Eq 1-3
  n, number of concerted allosteric binding sites for Tris-T4: 3
Human 20S proteasome; rate-limiting step in state A, fit of Eq 1-3, substrate ≤ 25 μM, pH 8.0, 37 °C
  kcatA: 11.5 ± 1.3 s⁻¹
Human 20S proteasome; rate-limiting step in state B (stabilized by Tris-T4), fit of Eq 1-3
  kcatB: 0.32 ± 0.05 s⁻¹
Human 20S proteasome; state A, absence of substrate
  KAU, affinity constant for Tris-T4: 2.0(± 0.3) × 10^4 M^−1
Human 20S proteasome; [5]
  KAL, affinity constant for Tris-T4: 1.2(± 0.3) × 10^4 M^−1
Human 20S proteasome; state B, absence of substrate
  KBU, affinity constant for Tris-T4: 8.2(± 1.2) × 10^7 M^−1
Human 20S proteasome; [6]
  KBL, affinity constant for Tris-T4: 1.35(± 0.28) × 10^8 M^−1
Human 20S proteasome; substrate-bound ES complex
  LL, equilibrium constant between A and B: 3.9(± 0.6) × 10^−5 (3)
Human 20S proteasome; substrate-bound state
  free energy contribution of each Tris-T4 binding step (RTln(KBL/KAL)): 5.71 kcal/mol
Human 20S proteasome; substrate-free conformation
  free energy contribution of each Tris-T4 binding step (RTln(KBU/KAU)): 5.11 kcal/mol
Human 20S proteasome; substrate-free porphyrin triple-bound enzyme
  free energy for the A → B transition in favor of the B functional state (RTlnLUγ^3): 7.5 kcal/mol
Wt y20S proteasome; Eq 1-3
  m, number of competitive inhibitory sites: 1
  n, number of concerted allosteric binding sites for Tris-T4: 2
Wt y20S proteasome; [3]
  KmA: 1.17(± 0.22) × 10^−4 M
Wt y20S proteasome; [4]
  KmB: 9.04(± 1.82) × 10^−6 M
Wt y20S proteasome; above 1 μM Tris-T4, overwhelms the activation
  effect on chymotryptic-like activity at higher Tris-T4 concentrations: competitive inhibitory effect
Wt y20S proteasome; absence of the substrate
  LU, equilibrium constant between A and B: 6.0(± 1.0) × 10^−4 (2)
Wt y20S proteasome; chymotryptic-like activity
  Tris-T4 concentration at which activation is essentially completed: 1 µM
Wt y20S proteasome; rate-limiting step in state A, fit of Eq 1-3
  kcatA: 0.95 ± 0.15 s⁻¹
Wt y20S proteasome; rate-limiting step in state B (stabilized by Tris-T4)
  kcatB: 0.17 ± 0.03 s⁻¹
Wt y20S proteasome; state A, absence of substrate
  KAU, affinity constant for Tris-T4: 3.0(± 0.5) × 10^5 M^−1
Wt y20S proteasome; state B
  KBI, affinity constant for Tris-T4 to the inhibitory competitive site: 2.5(± 0.4) × 10^6 M^−1
Wt y20S proteasome; state B, absence of substrate
  KBU, affinity constant for Tris-T4: 9.0(± 1.8) × 10^7 M^−1
Wt y20S proteasome; [6]
  KBL, affinity constant for Tris-T4: 1.3(± 0.3) × 10^8 M^−1
Wt y20S proteasome; substrate-bound ES complex
  LL, equilibrium constant between A and B: 7.8(± 1.5) × 10^−3 (2)
[1]; Eq 1-3
  m, number of competitive inhibitory sites: 1
  n, number of concerted allosteric binding sites for Tris-T4: 2
[1]; [3]
  KmA: 4.1(± 0.6) × 10^−3 M
[1]; Michaelis-Menten constant in state B
  KmB: 1.07(± 0.27) × 10^−2 M
[1]; Tris-T4 0-5 μM, no activation
  effect on chymotryptic-like activity: only the competitive inhibitory effect is observed
[1]; absence of the substrate
  LU, equilibrium constant between A and B: 3.9(± 0.6) × 10^−2
[1]; state A, absence of substrate
  KAU, affinity constant for Tris-T4: 3.0(± 0.5) × 10^5 M^−1
[1]; [5]
  KAL, affinity constant for Tris-T4: 1.2(± 0.4) × 10^5 M^−1
[1]; state A, same kcat imposed for both states
  kcatA: 49.5 ± 5.6 s⁻¹
[1]; state B
  KBI, affinity constant for Tris-T4 to the inhibitory competitive site: 2.5(± 0.4) × 10^6 M^−1
[1]; state B, absence of substrate
  KBU, affinity constant for Tris-T4: 9.0(± 1.8) × 10^7 M^−1
[1]; [6]
  KBL, affinity constant for Tris-T4: 1.3(± 0.3) × 10^8 M^−1
[1]; state B, same kcat imposed for both states
  kcatB: 49.5 ± 5.6 s⁻¹
[1]; substrate-bound ES complex
  LL, equilibrium constant between A and B: 1.5(± 1.0) × 10^−2
h20S proteasome
  STD and WL-NMR spectra, interaction: positive signals
[2]
  IC50: 920 ± 60 nM

## C[n+]1ccc(-c2ccc(-c3c4nc(c(-c5ccc(-c6cc[n+](C)cc6)cc5)c5ccc([nH]5)c(-c5ccc(-c6cc[n+](C)cc6)cc5)c5nc(c(-c6ccc(-c7cc[n+](C)cc7)cc6)c6ccc3[nH]6)C=C5)C=C4)cc2)cc1 [pTMPyPP4, meso-tetrakis (4-N-methylphenyl-pyridyl)-porphyrin]
h20S
  mode of action on h20S: allosteric inhibitor

## C[n+]1ccc(-c2c3nc(c(-c4cc[n+](C)cc4)c4ccc([nH]4)c(-c4cc[n+](C)cc4)c4nc(c(-c5cc[n+](C)cc5)c5ccc2[nH]5)C=C4)C=C3)cc1 [H2T4, meso-tetrakis (4-N-methylpyridyl)-porphyrin]
h20S
  mode of action on h20S: competitive inhibitor
